Pest or weed control and IC50 data for two compounds are collected here from patent US5756423A, “Method of controlling plants by inhibition of farnesyl pyrophosphate synthase” (Zeneca Limited, priority 1997, dated 1998).

Like-named read-outs stand apart in the source and are kept apart here.

Experiment [1] deals with wild oat (Avena fatua) (AVEFA). Briefly: post-emergent herbicidal test, wild oat. The experiment is classed as in vivo. The note with it: Avena fatua, post-emergence; post-emergent, 1.0 kg/ha (*), 17-21 days after application; read-out: AVEFA percent control. Put shortly: (§1)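 Seedlings grown in sandy loam in a greenhouse (29/21 °C day/night, 14 h light) were sprayed post-emergence at 1 or 4 kg/ha in water with 0.5% Tween 20; grasses at 3–4 leaf, broadleaves at 1–2 leaf. Percent control versus untreated flats (0–100%) was rated 17–21 days later.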

The test system of experiment [2] is green foxtail (Setaria viridis) (SETVI). As to the kind of experiment: post-emergent herbicidal test, green foxtail. The experiment is classed as in vivo. Conditions: Setaria viridis, post-emergence, post-emergent, 1.0 kg/ha (*), 17-21 days after application; read-out: SETVI percent control. The gist of the method:
as §1

For experiment [3], the system named is velvetleaf (Abutilon theophrasti) (ABUTH). Briefly: post-emergent herbicidal test, velvetleaf. The format is in vivo. The note with it: Abutilon theophrasti, post-emergence, post-emergent, 1.0 kg/ha (*), 17-21 days after application; read-out: ABUTH percent control. Put shortly: as §1
The subject of experiment [4] is yellow nutsedge (Cyperus esculentus) (CYPES). As to the kind of experiment: post-emergent herbicidal test, yellow nutsedge. The format is in vivo. Conditions: Cyperus, post-emergence, post-emergent, 1.0 kg/ha (*), 17-21 days after application; read-out: CYPES percent control. Put shortly: as §1
Experiment [5] deals with barnyard grass (Enchinochloa crusgalli) (ECHCG). Briefly: post-emergent herbicidal test, barnyard grass. Conditions: Echinochloa crus-galli, post-emergence, post-emergent, 1.0 kg/ha (*), 17-21 days after application; read-out: ECHCG percent control. The format is in vivo. Put shortly:
as §1

The test system of experiment [6] is wild mustard (Brassica kaber), also known as Sinapis arvensis (SINAR). As to the kind of experiment: post-emergent herbicidal test, wild mustard. The experiment is classed as in vivo. The note with it: Brassica, post-emergence, post-emergent, 1.0 kg/ha (*), 17-21 days after application; read-out: SINAR percent control. The gist of the method: as §1
The test system of experiment [7] is morningglory (Ipomoea spp.) (IPOSS). Briefly: post-emergent herbicidal test, morningglory. The format is in vivo. Conditions: Ipomoea, post-emergence, post-emergent, 1.0 kg/ha (*), 17-21 days after application; read-out: IPOSS percent control. Put shortly:
as §1

For experiment [8], the system named is farnesyl pyrophosphate synthase in daffodil chromoplasts. Briefly: inhibition of farnesyl pyrophosphate synthase in daffodil chromoplasts (14C-isopentenyl pyrophosphate incorporation). The format is biochemical, Narcissus pseudonarcissus. The note with it: unit inferred, IC50 values in nM, read-out: IC50. The gist of the method:
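Daffodil chromoplasts in pH 7.7 sucrose/MgCl2/HEPES buffer with cysteine, NaF and BSA, started with ~3 micromolar 14C-isopentenyl pyrophosphate, 30 min at 30° C. Butanol-extractable radioactivity counted by scintillation; % residual activity calculated against zero-time and end-point no-inhibitor controls.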

Broadly, the IC50 is the concentration at which inhibition is half-maximal. As for `O=P(O)(O)C(CN1C=NCCC1)P(=O)(O)O` [Compound 65], the pest or weed control at 1000 g/ha worked out at 95% in experiment [1]; 100% in experiment [2]; 100% in experiment [3]; 5% in experiment [4]; 100% in experiment [5]; 100% in experiment [6]. Moreover, the pest or weed control at 1000 g/ha in experiment [7] stood at 100%. In addition, the IC50 in experiment [8] (Table I) and in experiment [8] (Table II) was 50 nM each time.
Regarding `CC(O)CNCC(P(=O)(O)O)P(=O)(O)O` (centres unmarked) [Compound 66], the pest or weed control at 1000 g/ha worked out at 90% in experiment [1]; 98% in experiment [2]; 90% in experiment [3]; 60% in experiment [4]; 95% in experiment [5]; 100% in experiment [6]. Besides, the pest or weed control at 1000 g/ha in experiment [7] is 75%. In addition, the IC50 in experiment [8] (Table II) amounted to 58 nM.
